This is an account of results in publication PMC5407577, “Functional and genetic evidence that nucleoside transport is highly conserved in Leishmania species: Implications for pyrimidine-based chemotherapy” (International Journal for Parasitology: Drugs and Drug …, 2017).

The target in assay [1] is LmexNT1. Put plainly: [3H]-adenosine uptake by L. mexicana promastigotes. Format: cell-based, Leishmania mexicana. An excerpt:
Using the standard uptake technique as described for T. brucei and Leishmania species ([Wallace et al., 2002], [Al-Salabi and De Koning, 2005], [Gudin et al., 2006]), the dose- or time-dependent uptake of radiolabeled permeants was investigated. The following radiolabels and specific activities were used: [^3H]-thymidine (Perkin Elmer; 56.6 Ci/mmol); [^3H]-adenosine (American Radiolabeled Chemicals UK; 40 Ci/mmol); [^3H]-uridine (American Radiolabeled Chemicals UK; 30 Ci/mmol); [^3H]-uracil (Perkin Elmer; 24.8 Ci/mmol); [^3H]-inosine (American Radiolabeled Chemicals UK; 20 Ci/mmol); [^3H]-5-fluorouracil (Moravek; 20 Ci/mmol).
(§1) Briefly, cells in the mid-to-late logarithmic stage of growth were harvested by centrifugation for 10 min at 1500×g. The cells were washed twice with transport assay buffer (AB: 33 mM HEPES, 98 mM NaCl, 4.6 mM KCl, 0.55 mM CaCl2, 0.07 mM MgSO4, 5.8 mM NaH2PO4, 0.3 mM MgCl2, 23 mM NaHCO3, 14 mM glucose, pH 7.3), resuspended at a density of 10^8 cells ml^−1 in AB, and left for 20–30 min at room temperature to recover from centrifugation stress. One hundred microliters of cell suspension was incubated at ambient temperature for a predetermined time with 100 μl radiolabeled test compound, in the presence or absence of unlabeled substrate or other competitive inhibitors. The incubation was terminated by the addition of ice-cold stop solution (AB containing saturating levels, usually 10 mM, of unlabeled permeant) and centrifugation through oil for 1 min at 13,000 × g. […] Radioactivity was determined by liquid scintillation counting in a Beckman LS6000 TA scintillation counter. Saturation data, inhibition data, and time courses were plotted to equations for linear or non-linear regression (hyperbolic or sigmoid curves), as appropriate. All experiments were performed in triplicate and on at least three independent occasions.
We next investigated the transport of [^3H]-adenosine in L. mexicana promastigotes, which according to the efficient inhibition of [^3H]-thymidine by adenosine, should be taken up with high affinity.

Assay [2] addresses LmexNT1. Format: cell-based, Leishmania mexicana. As to conditions: inhibition of 0.25 μM [3H]-uridine uptake in the presence of 1 mM uracil. The procedure:
(§2) Using the standard uptake technique as described for T. brucei and Leishmania species ([Wallace et al., 2002], [Al-Salabi and De Koning, 2005], [Gudin et al., 2006]), the dose- or time-dependent uptake of radiolabeled permeants was investigated.
as §1

Another assay addresses LmexUU1. Format: cell-based, Leishmania mexicana. Particulars: inhibition of [3H]-uracil uptake, 4 min. As for the experimental part:
as §2, §1

Another assay has as its target LmajUUT1. Put plainly: [3H]-uridine uptake by L. major promastigotes, high-affinity uracil-sensitive component. Format: cell-based, Leishmania major. Particulars: inhibition of 0.25 μM [3H]-uridine uptake. The procedure: as §2, §1
For assay [3], the target named is LmajNT1. In words: [3H]-uridine uptake by L. major promastigotes, low-affinity component. Format: cell-based, Leishmania major. As to conditions: inhibition of 0.25 μM [3H]-uridine uptake. As for the experimental part:
as §2, §1

For assay [4], the target named is LmajNT1. In words: [3H]-thymidine uptake by L. major promastigotes. Format: cell-based, Leishmania major. Particulars: for Ki: inhibition of 0.25 μM [3H]-thymidine uptake (total LmajNT1.1 + LmajNT1.2), 5 min. The procedure: as §2, §1
Subsequent experiments were performed with a 5 min incubation time.

The test system of a further assay is L. major promastigotes. In words: total [3H]-uridine uptake by L. major promastigotes. Format: cell-based, Leishmania major. As to conditions: Leishmania major. The procedure: as §2, §1
Assay [5] concerns the target LmexNT1. Format: cell-based, Leishmania mexicana. Particulars: for rate of uptake: 1 μM [3H]-thymidine. As for the experimental part:
as §2, §1
L. donovani is known to express one pyrimidine nucleoside transporter, LdNT1, which also transports adenosine ([Vasudevan et al., 1998], [De Koning et al., 2005]). In order to investigate whether this model held true for L. mexicana, the uptake of [^3H]-thymidine was studied. […] Care was taken throughout this study that whenever inhibition constants (Ki) or Michaelis-Menten constants (Km) were determined the conditions used had been verified to be well within the linear range of uptake.

Assay [6] has as its system T. b. brucei strain B48. In words: microbe, parasite or virus in culture. Format: cell-based. Particulars: Trypanosoma brucei, read-out: inhibition of 0.5 μM [3H]-uridine uptake, 250 μM inhibitor. The procedure:
as §2
as §1, with “All experiments were performed in triplicate and on at least three independent occasions.” left out

Assay [7] concerns T. b. brucei strain B48. In words: [3H]-inosine uptake in non-transfected T. brucei B48. Format: cell-based, Trypanosoma brucei brucei. As for the experimental part:
as §2, §1

The next assay concerns LmajNT2. Put plainly: [3H]-inosine transport by T. brucei B48 cells expressing LmajNT2. Format: cell-based, Leishmania major. As for the experimental part:
(§3) Plasmid construction and transfection was performed according to [Munday et al. (2013)]. The nucleoside transporter genes were isolated from L. mexicana and L. major. […] The primers used in this study (Table S2) were designed to flank the gene of interest, one complementary to the sequence upstream of the 5′ end and the other complementary to the sequence downstream of the 3′ end. All of the nucleoside transporters genes were PCR-amplified from genomic DNA of each strain using the high-fidelity proof-reading polymerase Phusion (New England Biolabs) and cloned into the pGEMTeasy (Promega) vector prior to Sanger sequencing (Source BioScience, Glasgow, UK). […] After confirming the identity of each gene, the nucleoside transporter genes (LmajNT1A, LmajNT1B, LmajNT2, LmexNT1A, LmexNT1B, and LmexNT2) were ligated into the expression vector pHD1336 ([Biebinger et al., 1997]) and then were linearized with NotI digestion. All genes were verified by Sanger sequencing, prior to transfection into T. b. brucei clone B48. B48 parasites (1 × 10^7 cells) were washed into Human T Cell buffer for transfection using the desired cassette with an Amaxa Nucleofector using program X-001. Cells were transferred into pre-warmed HMI-9 medium and allowed to recover for 8–16 h at 37 °C and 5% CO2. Following recovery, transfectants were grown and cloned in selective medium containing 5 μg ml^−1 blasticidin S using limiting dilution.
as §2
(§4) Briefly, cells in the mid-to-late logarithmic stage of growth were harvested by centrifugation for 10 min at 1500×g. […] Radioactivity was determined by liquid scintillation counting in a Beckman LS6000 TA scintillation counter. […]

The subject of a further assay is LmexNT2. In words: [3H]-inosine transport by T. brucei B48 cells expressing LmexNT2. Format: cell-based, Leishmania mexicana. As for the experimental part:
as §3, with “Cells were transferred into pre-warmed HMI-9 medium and allowed to recover for 8–16 h at 37 °C and 5% CO2. Following recovery, transfectants were grown and cloned in selective medium containing 5 μg ml^−1 blasticidin S using limiting dilution.” left out
as §4

The mark [8] stands for this setting: inhibition of 0.05 μM [3H]-adenosine uptake, read-out: Ki.
[9] abbreviates: 50 nM [3H]-inosine + 250 μM adenosine.

Like-named read-outs stand apart in the source and are kept apart here.

As for `Nc1ncnc2[nH]cnc12` [adenine], the Ki (usually a measure of affinity in units of concentration, obtained from inhibition or displacement) on LmexNT1 [1] (setting [8]) was greater than 1 mM; on LmexNT1 [2], greater than 1 mM; at LmexUU1 it was 288 ± 67 µM; at LmajUUT1 it was 5.14 ± 2.25 µM; on LmajNT1 [3], greater than 1000 µM; on LmajNT1 [4], greater than 1 mM. In addition, the inhibition (as a rule, the change of the read-out against control, counted positive when it falls) at 0.25 µM with L. major promastigotes (3 h, read-out: partial (maximal) inhibition of 0.25 μM [3H]-uridine transport) came to 62.7 ± 1.7%.
Take `O=c1[nH]cnc2c1ncn2[C@@H]1O[C@H](CO)[C@@H](O)[C@H]1O` [inosine]: the Ki is 640 ± 34 µM at LmexNT1 [5] (inhibition of 1 μM [3H]-thymidine uptake, 20 s); 1.63 ± 0.134 mM at LmexNT1 [1] (setting [8]); 1.6 ± 0.1 mM at LmexNT1 [1] (inhibition of [3H]-adenosine uptake, read-out: affinity for inhibition of adenosine transport (Ki)); 1.01 ± 0.19 mM on LmexNT1 [2]; 0.5 ± 0.16 µM at LmajUUT1; greater than 1000 µM on LmajNT1 [3]. Also, the Ki on LmajNT1 [4] amounted to 1.99 ± 3.05 mM. Moreover, the inhibition at 100 µM was 83.5% in the assay on L. major promastigotes (20 min, read-out: inhibition of 0.25 μM uridine transport in time course over 20 min, 100 μM inhibitor, n = 2) and 70.8 ± 4.5% in the assay with L. major promastigotes (at 100 μM inhibitor, read-out: inhibition of 0.25 μM [3H]-uridine transport). Also, in the assay with T. b. brucei strain B48 [6], the inhibition at 250 µM was 24.3%. In addition, the rate of uptake in the assay on T. b. brucei strain B48 [7] (50 nM [3H]-inosine) is 0.0049 ± 0.0002 pmol(10^7 cells)s^−1. The entries for the “inhibition of 50 nM [3H]-inosine transport” value with T. b. brucei strain B48 [7] (250 μM adenosine or 1 mM unlabeled inosine (Fig. 7B)), with LmajNT2 (1 mM inosine) and with LmexNT2 (1 mM inosine) were “fully inhibited”, 99.8% and 99.9%, respectively. Besides, in the assay on LmajNT2 (setting [9]), the “uptake rate in the presence of adenosine” value is 0.0023 ± 0.0001 pmol(10^7 cells)^−1s^−1. The “rate of transport in the presence of adenosine” value with LmexNT2 (setting [9]) is recorded as 0.0023 ± 0.0003 pmol(10^7 cells)^−1s^−1.
Turning to `Cc1cn([C@H]2C[C@H](O)[C@@H](CO)O2)c(=O)[nH]c1=O` [thymidine], the rate of uptake in the assay with LmexNT1 [5] (linear over 30 s (Fig. 1A)) is 0.082 ± 0.005 pmol(10^7 cells)^−1s^−1; in the assay with LmexNT1 [5] (over 2 min (Fig. 1B)), 0.051 ± 0.002 pmol(10^7 cells)^−1s^−1. Besides, the Vmax in the assay on LmexNT1 [5] ([3H]-thymidine) was 1.53 ± 0.28 pmol(10^7 cells)^−1s^−1. The Km in the assay on LmexNT1 [5] ([3H]-thymidine, n = 3) was determined as 11.2 ± 2.4 µM; in the assay on LmajNT1 [4] ([3H]-thymidine, high affinity component, Lineweaver-Burke plot, n = 5, read-out: Km (1)), 4.2 ± 1.09 µM; in the assay with LmajNT1 [4] (n = 5, read-out: average Km from Michaelis-Menten saturation plots (single-component fit)) it was 30.7 ± 2.1 µM; in the assay on LmajNT1 [4] (single experiment shown in Fig. 5C, read-out: apparent Km, higher affinity component), 1.26 µM; with LmajNT1 [4] (single experiment shown in Fig. 5C, read-out: apparent Km, lower affinity component) it was 17.1 µM. In addition, the Ki on LmexNT1 [1] (setting [8]) came out at 0.0165 ± 0.0004 mM; at LmexNT1 [2] it was 0.00998 ± 0.00267 mM; at LmajUUT1, 60.9 ± 8.4 µM; at LmajNT1 [3] it was 60.9 ± 8.4 µM. Also, the “Vmax (1)” value in the assay on LmajNT1 [4] ([3H]-thymidine, high affinity component) is given as 0.023 ± 0.003 pmol(10^7 cells)^−1s^−1. Besides, in the assay on LmajNT1 [4] ([3H]-thymidine, lower affinity component), the “Vmax (2)” value is recorded as 0.14 ± 0.03 pmol(10^7 cells)^−1s^−1.
